This is an account of results in PMC6213309, “Antibacterial Activity and Mechanism of Action of Bovine Lactoferricin Derivatives with Symmetrical Amino Acid Sequences” (International Journal of Molecular Sciences, 2018).

One assay deals with E. coli ATCC 25922. The format is cell-based. The conditions noted are these: ATCC25922, 18 h.
The subject of a further assay is E. coli UB 1005. The format is cell-based. The conditions noted are these: UB 1005, 18 h.
Assay [1] has as its system Salmonella typhimurium C 7731. The format is cell-based.
Procedure: (§2) The antimicrobial activity of the peptides were defined as the minimum inhibitory concentrations (MIC) according to the Clinical and Laboratory Standards Institute broth microdilution method as described previously [47]. Briefly, 50 μL two-fold serial dilutions of peptides (with final concentrations ranging from 0 μM to 256 μM) and 50 μL bacterial fluids diluted with MHB were added to 96-well microtiter plates. The plates were then incubated at 37 °C for 18 h.
Assay [2] relates to Salmonella typhimurium ATCC 14028. The format is cell-based.
Procedure: as §2
Assay [3] relates to Salmonella pullorum C 7913. The format is cell-based. The conditions noted are these: 18 h.
Assay [4] concerns Salmonella enterica subsp. CMCC 50071. The conditions noted are these: MHB, 37 °C, 18 h, peptides 0-256 μM, triplicate samples. On the procedure: (§1) The antimicrobial activity of the peptides were defined as the minimum inhibitory concentrations (MIC) according to the Clinical and Laboratory Standards Institute broth microdilution method as described previously. Briefly, 50 μL two-fold serial dilutions of peptides (with final concentrations ranging from 0 μM to 256 μM) and 50 μL bacterial fluids diluted with MHB were added to 96-well microtiter plates. The plates were then incubated at 37 °C for 18 h.

A further assay concerns S. aureus ATCC 29213. The format is cell-based.
A further assay has as its system S. aureus ATCC 25923. The format is cell-based.
For assay [5], the system named is S. epidermidis ATCC 12228. The format is cell-based.
Procedure: as §2
A further assay deals with E. coli ATCC25922. The conditions noted are these: for MIC in the presence of Ca2+ / MIC in the presence of Fe3+ / MIC in the presence of K+ / MIC in the presence of Mg2+ / MIC in the presence of NH4+ / MIC in the presence of Na+ / MIC in the presence of Zn2+ / MIC, Control (enzymatic stability) / MIC, Control (salt stability) / MIC, Control (thermal stability): ATCC25922, 18 h; for MIC after Trypsin: peptide treated with 1 mg/mL trypsin. On the procedure: as §1
We assessed the salt stability, thermal stability, and enzymatic stability of the AMPs. Briefly, E. coli ATCC25922 was selected as the test bacterium. The control group was untreated peptides. Different concentrations of salts (150 mM NaCl, 4.5 mM KCl, 6 μM NH4Cl, 1 mM MgCl2, […], 8 mM […], 2.5 mM CaCl2, and 4 mM FeCl3) were added to the incubation buffer to examine the effect of each salt on the antimicrobial activities of the peptides. AMPs were treated for 1 h at 100 °C to test the thermal stability. AMPs were also treated with trypsin, pepsin, papain, and protease K at a concentration of 1 mg/mL for 1 h at 37 °C to test enzyme stability.

Like-named read-outs stand apart in the source and are kept apart here. Ends that are not written are not given here.

Procedure for E. coli ATCC 25922: as §2
Procedure for E. coli UB 1005: as §2

For orientation: MIC means the smallest concentration in the dilution series that meets the test's criterion for growth inhibition. In the assay on E. coli ATCC 25922, KKRRWQWRRKK-NH2 [KK-KK] came in with an MIC of 32 µM. Also, the MIC in the assay on E. coli UB 1005 was determined as 32 µM. This substance showed an MIC in [1] (Salmonella typhimurium C 7731, MHB, 37 °C, 18 h, peptides 0-256 μM, triplicate samples) above 128 µM. The substance further registered an MIC in [2] (Salmonella typhimurium ATCC 14028, MHB, 37 °C, 18 h, peptides 0-256 μM, triplicate samples) above 128 µM. Also, in assay [3] (Salmonella pullorum C 7913, MHB, 37 °C, peptides 0-256 μM, triplicate samples), the MIC was 128 µM. In addition, the MIC in assay [4] is 128 µM. Moreover, in the assay with S. aureus ATCC 29213 (S. aureus ATCC 29213, MHB, 37 °C, 18 h, peptides 0-256 μM, triplicate samples), the MIC was above 128 µM. Also, the minimal inhibitory concentration (MIC) against S. aureus ATCC 25923 (S. aureus ATCC 25923, MHB, 37 °C, 18 h, peptides 0-256 μM, triplicate samples) came out at 128 µM. The substance also gave an MIC in assay [5] (S. epidermidis ATCC 12228, MHB, 37 °C, 18 h, peptides 0-256 μM, triplicate samples) above 128 µM. In addition, in the assay with E. coli ATCC25922, the “MIC in the presence of Ca2+” value was found to be 16 µM, the “MIC in the presence of Fe3+” value is 8 µM, the “MIC in the presence of K+” value is 16 µM and the “MIC in the presence of Mg2+” value turned out to be 64 µM. Further, in the assay with E. coli ATCC25922, the “MIC in the presence of NH4+” value was found to be 8 µM; the “MIC in the presence of Na+” value is 16 µM; the “MIC in the presence of Zn2+” value turned out to be 8 µM; the “MIC, Control (enzymatic stability)” value is 32 µM. Further, in the assay with E. coli ATCC25922, the “MIC, Control (salt stability)” value worked out at 32 µM and the “MIC, Control (thermal stability)” value is 32 µM. The “MIC following heating at 100 °C” value against E. coli ATCC25922 (E. coli ATCC25922, peptide treated 1 h at 100 °C) was above 128 µM. For the same substance, in the assay with E. coli ATCC25922 (E. coli ATCC25922, peptide treated with 1 mg/mL papain, 1 h, 37 °C), the “MIC after Papain” value is above 128 µM. In the assay with E. coli ATCC25922 (E. coli ATCC25922, peptide treated with 1 mg/mL pepsin, 1 h, 37 °C), the “MIC after Pepsin” value is above 128 µM. Moreover, the “MIC after Protease K” value against E. coli ATCC25922 (E. coli ATCC25922, peptide treated with 1 mg/mL protease K, 1 h, 37 °C) was above 128 µM. In the assay on E. coli ATCC25922 (E. coli ATCC25922, 1 h, 37 °C), the “MIC after Trypsin” value was above 128 µM.
The substance KWRRWQWRRWK-NH2 [KW-WK] came in with an MIC in the assay on E. coli ATCC 25922 of 4 µM. The substance also gave an MIC with E. coli UB 1005 of 8 µM. This substance gave an MIC in assay [1] (murium C 7731, 18 h) of 16 µM. For the same substance, in assay [2] (ATCC 14028, 18 h), the MIC stood at 32 µM. The MIC in assay [3] turned out to be 16 µM. Also, in assay [4], the MIC is 128 µM. The MIC with S. aureus ATCC 29213 (ATCC 29213, 18 h) worked out at 8 µM. The same substance had an MIC in the assay with S. aureus ATCC 25923 (ATCC 25923, 18 h) of 32 µM. The MIC in assay [5] (ATCC 12228, 18 h) came out at 8 µM. In the assay on E. coli ATCC25922 (ATCC25922, 1 h), the “MIC after Papain” value was determined as 8 µM, the “MIC after Pepsin” value was determined as 16 µM, the “MIC after Protease K” value was determined as 8 µM and the “MIC following heating at 100 °C” value was 4 µM. Moreover, in the assay on E. coli ATCC25922, the “MIC in the presence of Ca2+” value was 8 µM, the “MIC in the presence of Fe3+” value turned out to be 4 µM, the “MIC in the presence of K+” value was 4 µM and the “MIC in the presence of Mg2+” value turned out to be 8 µM. In the assay on E. coli ATCC25922, the “MIC in the presence of NH4+” value was 8 µM; the “MIC in the presence of Na+” value is 8 µM; the “MIC in the presence of Zn2+” value worked out at 8 µM; the “MIC, Control (enzymatic stability)” value was determined as 4 µM. For the same substance, in the assay on E. coli ATCC25922, the “MIC, Control (salt stability)” value amounted to 4 µM and the “MIC, Control (thermal stability)” value amounted to 4 µM. The “MIC after Trypsin” value in the assay on E. coli ATCC25922 (E. coli ATCC25922, 1 h, 37 °C) was above 128 µM.
As for FPRRWQWRRPF-NH2 [FP-PF], the MIC against E. coli ATCC 25922 is 4 µM. In the assay on E. coli UB 1005, the MIC was determined as 8 µM. The MIC in assay [1] (murium C 7731, 18 h) is 64 µM. In assay [2] (ATCC 14028, 18 h), this substance registered an MIC of 32 µM. In [3], this substance came in with an MIC of 16 µM. The same substance returned an MIC in [4] of 128 µM. Also, the MIC against S. aureus ATCC 29213 (ATCC 29213, 18 h) turned out to be 32 µM. The same substance displayed an MIC against S. aureus ATCC 25923 (ATCC 25923, 18 h) of 32 µM. For the same substance, the MIC in assay [5] (ATCC 12228, 18 h) amounted to 64 µM. In the assay with E. coli ATCC25922 (ATCC25922, 1 h), the “MIC after Papain” value turned out to be 8 µM, the “MIC after Pepsin” value came out at 16 µM, the “MIC after Protease K” value is 4 µM and the “MIC following heating at 100 °C” value amounted to 8 µM. Besides, in the assay with E. coli ATCC25922, the “MIC in the presence of Ca2+” value is 8 µM, the “MIC in the presence of Fe3+” value amounted to 4 µM, the “MIC in the presence of K+” value stood at 8 µM and the “MIC in the presence of Mg2+” value was 8 µM. Also, in the assay on E. coli ATCC25922, the “MIC in the presence of NH4+” value was 8 µM; the “MIC in the presence of Na+” value was determined as 64 µM; the “MIC in the presence of Zn2+” value turned out to be 8 µM; the “MIC, Control (enzymatic stability)” value worked out at 4 µM. Further, in the assay on E. coli ATCC25922, the “MIC, Control (salt stability)” value is 4 µM and the “MIC, Control (thermal stability)” value came to 4 µM. Besides, the “MIC after Trypsin” value in the assay with E. coli ATCC25922 (E. coli ATCC25922, 1 h, 37 °C) stood at 128 µM.
